The subject of assay [1] is Pseudomonas aeruginosa strain H1001 fliC::luxCDABE. Kind of assay: Luminescence-based assay for the non-cleaved (bound) peptides on cellulose membranes. The assay is classed as cell-based. Conditions: for Luminescence at the given time in minutes: 0 / Luminescence at the given time in minutes: 20 / Luminescence at the given time in minutes: 40 / Luminescence at the given time in minutes: 60 / Luminescence at the given time in minutes: 80 / Luminescence at the given time in minutes: 100 / Luminescence at the given time in minutes: 120 / Luminescence at the given time in minutes: 180 / Luminescence at the given time in minutes: 240: cellulose-bound peptide; for Luminescence at the given time in minutes: 0: 0 min; for Luminescence at the given time in minutes: 20: 20 min; for Luminescence at the given time in minutes: 40: 40 min; for Luminescence at the given time in minutes: 60: 60 min; for Luminescence at the given time in minutes: 80: 80 min; for Luminescence at the given time in minutes: 100: 100 min; for Luminescence at the given time in minutes: 120: 120 min; for Luminescence at the given time in minutes: 180: 180 min; for Luminescence at the given time in minutes: 240: 240 min; for Activity Class bound: uncleaved cellulose-bound peptides. As to the method: Luminescence-based MIC assay for the non-cleaved peptides on cellulose membranes. The peptide spots were punched out and transferred to a 96 well microtiter plate with a clear polystyrene bottom and opaque white polypropylene sides (PerkinElmer, Boston, USA). The spots were washed two times with 100% ethanol for 5 min and afterwards equilibrated five times with 100 mM Tris buffer pH 7.3 for 5 min. An overnight culture of Pseudomonas aeruginosa strain H1001 fliC::luxCDABE was diluted 1:50 in new MH medium and incubated at 37° C. to an OD600 of 0.35. This bacterial culture was diluted 1:25 into 10 mM Tris-HCl buffer, pH 7.3 containing 20 mM glucose. Fifty μl of this culture was added to all wells of the microtiter plate and incubated at 37° C. The luminescence of the strain produced by the ATP-dependent luciferase system was detected in a time dependent manner using a Tecan Spectra Fluor plus (Tecan, Austria). At the end of the experiment, the membranes were cleaned by washing the spots two times with 100% ethanol for five minutes. After removing the ethanol the membrane was air-dried.
(§1) Strains. For the killing assay a mini-Tn5-lux mutant in Pseudomonas aeruginosa H103 was used. The strain is called H1001 and contains a fliC::luxCDABE transcriptional fusion resulting in constitutive expression of luciferase. The bacterial strains used for the antimicrobial activity assays included Escherichia coli UB1005 (F-, nalA37, metB1), a wild-type Salmonella enterica ssp. Typhimurium (S. Typhimurium), wild-type Pseudomonas aeruginosa PAO1 strain H103, Enterococcus faecalis ATCC29212, Staphylococcus aureus ATCC25923, and a clinical isolate of Staphylococcus epidermidis obtained from Dr. D. Speert (Department of Medicine, University of British Columbia). Antifungal activity was tested using a lab isolate of Candida albicans obtained from Dr. B. Dill (Department of Microbiology and Immunology, University of British Columbia).
The same set of peptides, as well as the reversed sequence of Bac2A-R ([…]; SEQ ID NO: 2166), were synthesized on cellulose and left uncleaved. The production of light was initially compared in wells containing spots of Bac2A, Bac2A-R (with the reversed sequence of Bac2A), the unrelated negative-control peptide, or, as additional controls, only cellulose, or only bacteria (FIG. 2).
As a control, the negative control (unrelated) peptide Bac429 and parent peptide Bac2A (=Bac001) were used in several different wells of the microtiter plate. Luminescence (relative light units; RLU) was measured at 14 different time points, 9 of which are shown. To permit comparison of the data with the free peptide data set, the result for each peptide was classified into six different groups, like the data set with the free peptides (Table 2). […] For the soluble peptides the following classes were established: […]

The subject of assay [2] is Pseudomonas aeruginosa strain H1001. Kind of assay: Assay for the cleaved (free, soluble) peptides from cellulose support, luminescence killing assay. Further details: key: 1: Peptides showing stronger killing than Bac2A at a 4 to 8-fold higher dilution; Peptides showing stronger killing compared to that of Bac2A at a 4-fold higher dilution; 3: Peptides similar to Bac2A; 4: Peptides similar to Bac2A at the highest concentration but demonstrating weaker killing at a 2-fold dilution; 5: Peptides giving very weak or no killing at a 2-fold dilution; 6: Peptides with weak killing activity at the highest concentration. Conditions: free (cleaved) peptides, killing relative to Bac2A. The assay is classed as cell-based. As to the method:
Assay for the cleaved peptides from cellulose support. The peptides were cleaved from the dried membrane in an ammonia atmosphere overnight, resulting in free peptides with an amidated C-terminus. The free peptides contained two β-alanines at the C-terminus, in addition to being amidated due to the linker between the cellulose membrane and the peptide sequence. The peptide spots were punched out and transferred in a 96-well microtiter plate. Serial dilutions were carried out from the membrane spots. Four rows were filled with four controls including two with Bac2A and two with of an unrelated peptide. The other eight rows were used for serial dilution steps of the peptide variants. An overnight culture of Pseudomonas aeruginosa strain H1001 was diluted 1:500 using either LB media or 100 mM Tris buffer pH 7.3, 20 mM glucose and was added to the wells (100 μl/well) containing the peptide spots. In all other wells 50 μl were added. The microtiter plate was incubated for 30 min at 37° C. to release the peptides from the membrane. Subsequently, a dilution series were performed and the plate was incubated at 37° C. The luminescence produced by the ATP dependent luciferase system were detected in a time dependent manner using a Tecan Spectra Fluor plus.
as §1
Peptide synthesis on cellulose is a very effective and inexpensive way to investigate many different peptide variants for one particular activity. However, one of the problems of this technique is the low peptide density synthesized on the membrane, about 280 nmol per cm2. An average peptide spot used for the experiments presented is about 0.3 cm2. Therefore, an assay had to be developed that was sensitive enough to show activity with this amount of peptides. P. aeruginosa H1001 has a reporter system (e.g., a luciferase gene cassette) incorporated into the bacterial chromosome in the fliC gene (involved in flagellar biosynthesis) that is constitutively expressed. It will thus produce light if ATP is present. When this strain is killed, e.g. by peptides, the amount of light produced will decrease due to a decrease in ATP levels in the killed cells. This action can thus be monitored by detecting luminescence in a microtiter plate luminescence reader over time. The volume and amount of cells per well were optimized for this assay. After screening, the killing action was monitored with small amounts of the parent peptide Bac2A (2 μg/ml of free peptide).
Forty-nine scrambled peptides (Bac002-Bac050) were synthesized on the cellulose support and then cleaved by ammonia gas resulting in free peptides with an amidated C-terminus including the linker. The peptide spots were transferred to a 96-well microtiter plate and incubated for 30 min to dissociate the peptides from the cellulose. After serial dilution and addition of strain H1001, luminescence was recorded in a time dependent manner (FIG. 1). All 50 scrambled peptides were compared to Bac2A ([…]-NH2; SEQ ID NO: 1) by this assay (see Table 2). […] Further since all scrambled peptides had some activity, a sequence-specific interaction of the peptides with a receptor or target could be excluded.

ARIARRVRILVV [Bac021]: in assay [1], the “Luminescence at the given time in minutes: 0” value (from here on “Luminescence … in minutes: 0”) came out at 5470 RLU, the “Luminescence at the given time in minutes: 20” value (“Luminescence … in minutes: 20” below) is 7247 RLU, the “Luminescence at the given time in minutes: 40” value (“Luminescence … in minutes: 40” below) was determined as 4581 RLU and the “Luminescence at the given time in minutes: 60” value (“Luminescence … 60” below) is on record as 1967 RLU. For the same sequence, in assay [1], the “Luminescence at the given time in minutes: 80” value (“Luminescence … in minutes: 80” below) was 683 RLU, the “Luminescence at the given time in minutes: 100” value (“Luminescence … 100” below) is on record as 278 RLU, the “Luminescence at the given time in minutes: 120” value (“Luminescence … 120” for short) is listed as 196 RLU and the “Luminescence at the given time in minutes: 180” value (from here on “Luminescence … 180”) was 129 RLU. Besides, in assay [1], the “Luminescence at the given time in minutes: 240” value (from here on “Luminescence … 240”) came out at 128 RLU and the “Activity Class bound” value is reported as 3 (Peptides similar to Bac2A resulting in lux values of less than 500 after 240 min.). Also, the “Activity Class Soluble” value in assay [2] was found to be 4.

As for ARRARIRILVVV [Bac032], in assay [1], the “Luminescence … in minutes: 0” value amounted to 4649 RLU, the “Luminescence … in minutes: 20” value is recorded as 6342 RLU, the “Luminescence … in minutes: 40” value amounted to 4584 RLU and the “Luminescence … 60” value is on record as 2088 RLU. Moreover, in assay [1], the “Luminescence … in minutes: 80” value is recorded as 595 RLU, the “Luminescence … 100” value was found to be 148 RLU, the “Luminescence … 120” value stood at 107 RLU and the “Luminescence … 180” value is reported as 54 RLU. Moreover, in assay [1], the “Luminescence … 240” value worked out at 33 RLU and the “Activity Class bound” value is given as 3 (Peptides similar to Bac2A resulting in lux values of less than 500 after 240 min.). Also, the “Activity Class Soluble” value in assay [2] is on record as 4.

On to ARRLIVRVRVIA [Bac003], for which, in assay [1], the “Luminescence … in minutes: 0” value is given as 4138 RLU, the “Luminescence … in minutes: 20” value is 5992 RLU, the “Luminescence … in minutes: 40” value stood at 3320 RLU and the “Luminescence … 60” value is recorded as 906 RLU. Also, in assay [1], the “Luminescence … in minutes: 80” value is given as 192 RLU, the “Luminescence … 100” value is listed as 74 RLU, the “Luminescence … 120” value is listed as 83 RLU and the “Luminescence … 180” value stood at 76 RLU. For the same sequence, in assay [1], the “Luminescence … 240” value stood at 36 RLU and the “Activity Class bound” value was 3 (Peptides similar to Bac2A resulting in lux values of less than 500 after 240 min.). Besides, in assay [2], the “Activity Class Soluble” value was found to be 5.

As to AVRAIRVLRVIR [Bac015], in assay [1], the “Luminescence … in minutes: 0” value is given as 4309 RLU, the “Luminescence … in minutes: 20” value is 7112 RLU, the “Luminescence … in minutes: 40” value amounted to 5227 RLU and the “Luminescence … 60” value came out at 3783 RLU. Also, in assay [1], the “Luminescence … in minutes: 80” value is reported as 2656 RLU, the “Luminescence … 100” value was 1785 RLU, the “Luminescence … 120” value is given as 1398 RLU and the “Luminescence … 180” value turned out to be 1244 RLU. For the same sequence, in assay [1], the “Luminescence … 240” value came to 1320 RLU and the “Activity Class bound” value is given as 4 (Peptides reducing luminescence (lux) values to between 500 to 1499 after 240 min.). In addition, the “Activity Class Soluble” value in assay [2] is recorded as 3.

On to AVRVRRRAILVI [Bac011], for which, in assay [1], the “Luminescence … in minutes: 0” value is listed as 4516 RLU, the “Luminescence … in minutes: 20” value worked out at 7019 RLU, the “Luminescence … in minutes: 40” value is reported as 5176 RLU and the “Luminescence … 60” value is reported as 3694 RLU. In addition, in assay [1], the “Luminescence … in minutes: 80” value turned out to be 2076 RLU, the “Luminescence … 100” value is on record as 1222 RLU, the “Luminescence … 120” value came out at 816 RLU and the “Luminescence … 180” value came to 494 RLU. In assay [1], the “Luminescence … 240” value worked out at 447 RLU and the “Activity Class bound” value was 3 (Peptides similar to Bac2A resulting in lux values of less than 500 after 240 min.). Further, the “Activity Class Soluble” value in assay [2] came to 4.

For IAARRLIRVVRV [Bac012], in assay [1], the “Luminescence … in minutes: 0” value is 4045 RLU, the “Luminescence … in minutes: 20” value was 7171 RLU, the “Luminescence … in minutes: 40” value amounted to 5701 RLU and the “Luminescence … 60” value was determined as 5037 RLU. In assay [1], the “Luminescence … in minutes: 80” value amounted to 4631 RLU, the “Luminescence … 100” value is 4418 RLU, the “Luminescence … 120” value worked out at 4182 RLU and the “Luminescence … 180” value is recorded as 4344 RLU. Further, in assay [1], the “Luminescence … 240” value was 5087 RLU and the “Activity Class bound” value is listed as 6 (Peptides having residual luminescence (lux) values greater than 3000 after 240 min.). Moreover, the “Activity Class Soluble” value in assay [2] is recorded as 3.

As for IARRIVAVRLRV [Bac026], in assay [1], the “Luminescence … in minutes: 0” value was determined as 4873 RLU, the “Luminescence … in minutes: 20” value came out at 6389 RLU, the “Luminescence … in minutes: 40” value amounted to 4439 RLU and the “Luminescence … 60” value was 2341 RLU. Besides, in assay [1], the “Luminescence … in minutes: 80” value was determined as 1080 RLU, the “Luminescence … 100” value turned out to be 518 RLU, the “Luminescence … 120” value is on record as 302 RLU and the “Luminescence … 180” value was 201 RLU. In assay [1], the “Luminescence … 240” value is 208 RLU and the “Activity Class bound” value is listed as 3 (Peptides similar to Bac2A resulting in lux values of less than 500 after 240 min.). For the same sequence, the “Activity Class Soluble” value in assay [2] was determined as 3.

For the sequence IIRAALRRVRVV [Bac009], in assay [1], the “Luminescence … in minutes: 0” value is 3935 RLU, the “Luminescence … in minutes: 20” value is listed as 6553 RLU, the “Luminescence … in minutes: 40” value is reported as 4936 RLU and the “Luminescence … 60” value is 4512 RLU. In assay [1], the “Luminescence … in minutes: 80” value came to 3977 RLU, the “Luminescence … 100” value worked out at 3488 RLU, the “Luminescence … 120” value came out at 3216 RLU and the “Luminescence … 180” value is on record as 3270 RLU. Further, in assay [1], the “Luminescence … 240” value came to 3104 RLU and the “Activity Class bound” value was 6 (Peptides having residual luminescence (lux) values greater than 3000 after 240 min.). The “Activity Class Soluble” value in assay [2] stood at 5.

These data come from patent US20080207522A1, “Antimicrobial Peptides” (priority 2004, published 2008).
